Experimental data: ChEMBL document CHEMBL3351974, “Development of constrained tamoxifen mimics and their antiproliferative properties against breast cancer cells” (Bioorg Med Chem Lett, 2015)
Where a name gives a salt, the structure may show the parent alone.

How the values were obtained:
MDA-MB-231 = assay: Antiproliferative activity against human MDA-MB-231 cells after 48 hrs by MTT assay; format: functional, cell-based; conditions: MDA-MB-231, 48 h
MCF7 = assay: Antiproliferative activity against human MCF7 cells after 48 hrs by MTT assay; format: functional, cell-based; conditions: MCF7, 48 h
[1] = Antiproliferative activity against human MEpiC cells after 48 hrs by MTT assay; format: cell-based

IC50 (MDA-MB-231) [µM]	IC50 (MCF7) [µM]	SMILES	IC50 [1] [µM]
7.51	41.5	O=C1C=CC2(C=C1)OC(=O)C(I)=C2c1ccccc1	6.33
19.8	6.23	O=Cc1ccc(C2=C(c3ccccc3)C3(C=CC(=O)C=C3)OC2=O)s1	7.08
19	5.99	O=C1C=CC2(C=C1)OC(=O)C(c1ccc([N+](=O)[O-])cc1)=C2c1ccccc1	66.5
9.73	5.79	COc1cc(C2=C(c3ccccc3)C3(C=CC(=O)C=C3)OC2=O)cc(OC)c1OC	6.61
9.45	5.85	COc1c(Br)cc(C)cc1C1=C(c2ccccc2)C2(C=CC(=O)C=C2)OC1=O	14.7
21.2	5.8	O=C1C=CC2(C=C1)OC(=O)C(c1cc3ccccc3o1)=C2c1ccccc1	66.5
32.9	5.9	O=C1C=CC2(C=C1)OC(=O)C(c1cc3ccccc3s1)=C2c1ccccc1	10.8
9.12	5.81	O=C1C=CC2(C=C1)OC(=O)C(c1ccc3c(c1)OCO3)=C2c1ccccc1	34.2
10	5.73	COc1ccc(F)cc1C1=C(c2ccccc2)C2(C=CC(=O)C=C2)OC1=O	13.5
38.6	6.32	O=C1C=CC2(C=C1)OC(=O)C(c1ccc(F)cc1)=C2c1ccccc1	11.1
64	5.86	COc1ccc(C2=C(c3ccccc3)C3(C=CC(=O)C=C3)OC2=O)cc1	11.7
15.2	5.95	O=C1C=CC2(C=C1)OC(=O)C(c1ccc(C(=O)O)cc1)=C2c1ccccc1	10.4
8.74	19	N#Cc1ccc(C2=C(c3ccccc3)C3(C=CC(=O)C=C3)OC2=O)cc1	8.89
6.66	52.6	COc1ccc(OC(=O)C#Cc2ccccc2)cc1	19.1
8.85	5.76	O=C1C=CC2(C=C1)OC(=O)C(c1ccc(CO)cc1)=C2c1ccccc1	3.86
61	6	O=C1C=CC2(C=C1)OC(=O)C(c1ccc(O)cc1)=C2c1ccccc1	16.8
4.06	–	COc1cccc2c1C(=O)c1c(O)c3c(c(O)c1C2=O)C[C@@](O)(C(=O)CO)C[C@@H]3O[C@H]1C[C@H](N)[C@H](O)[C@H](C)O1 [DOXORUBICIN HYDROCHLORIDE]	–
15.9	6.46	O=C1C=CC2(C=C1)OC(=O)C=C2c1ccccc1	7.67
